{"source": "paper PMC3204975", "about": "“A Photolyase-Like Protein from Agrobacterium tumefaciens with an Iron-Sulfur Cluster” (PLoS ONE, 2011)", "key": {"PhrB": {"target": "T1, PhrB (Agrobacterium fabrum, UniProt A9CH39)", "T1 construct": "full gene (1524 bp, 507 residues), C-terminal 6xHis-tag (pET-21b), expressed in E. coli ER2566, tag not reported cut", "T1 sequence (A9CH39 whole entry)": "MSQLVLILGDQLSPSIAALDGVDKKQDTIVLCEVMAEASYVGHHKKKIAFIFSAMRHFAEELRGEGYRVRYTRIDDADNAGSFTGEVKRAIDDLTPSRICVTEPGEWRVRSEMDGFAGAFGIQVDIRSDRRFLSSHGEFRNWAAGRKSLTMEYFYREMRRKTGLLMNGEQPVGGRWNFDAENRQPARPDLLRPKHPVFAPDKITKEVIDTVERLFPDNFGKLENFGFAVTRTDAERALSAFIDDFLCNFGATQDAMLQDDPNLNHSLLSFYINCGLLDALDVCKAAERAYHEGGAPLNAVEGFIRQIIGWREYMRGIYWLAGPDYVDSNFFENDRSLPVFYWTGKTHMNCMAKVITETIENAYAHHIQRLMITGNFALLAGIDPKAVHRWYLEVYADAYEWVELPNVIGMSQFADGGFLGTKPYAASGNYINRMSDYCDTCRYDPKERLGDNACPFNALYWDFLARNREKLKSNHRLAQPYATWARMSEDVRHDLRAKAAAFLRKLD", "experiment": "UV-vis absorption and blue-light photoreduction of co-purified cofactor", "assay_type": "binding", "conditions": "co-purified from E. coli; 24 h dark, then 470 nm and 405 nm light with 20 mM DTT, pH 7.8, 4°C"}, "PhrA": {"target": "T2, PhrA (Agrobacterium fabrum, UniProt A9CJC9)", "T2 construct": "full gene, N-terminal His6-tag (pQE30UA), expressed in E. coli XL1 blue, tag not reported cut", "T2 sequence (A9CJC9 1-479)": "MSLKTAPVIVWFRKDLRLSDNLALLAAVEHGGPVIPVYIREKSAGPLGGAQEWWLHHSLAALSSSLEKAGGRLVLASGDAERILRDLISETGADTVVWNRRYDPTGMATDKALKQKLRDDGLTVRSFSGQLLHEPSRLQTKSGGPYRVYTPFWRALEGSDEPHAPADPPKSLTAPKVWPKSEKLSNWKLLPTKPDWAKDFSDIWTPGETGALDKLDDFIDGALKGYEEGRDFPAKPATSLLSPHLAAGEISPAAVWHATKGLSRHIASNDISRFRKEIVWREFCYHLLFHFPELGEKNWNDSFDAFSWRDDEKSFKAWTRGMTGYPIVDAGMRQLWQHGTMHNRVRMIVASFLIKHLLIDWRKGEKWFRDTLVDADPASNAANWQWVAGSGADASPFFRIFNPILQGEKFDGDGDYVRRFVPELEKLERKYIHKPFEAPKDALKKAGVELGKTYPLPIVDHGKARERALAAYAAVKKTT", "experiment": "UV-vis absorption and blue-light photoreduction of co-purified cofactor", "assay_type": "binding", "conditions": "co-purified from E. coli; 24 h dark, then 470 nm light with 10 mM DTT, pH 7.8, 4°C"}}}
{"compound": "Cc1cc2nc3c(=O)[nH]c(=O)nc-3n(C[C@H](O)[C@H](O)[C@H](O)COP(=O)(O)OP(=O)(O)OC[C@H]3O[C@@H](n4cnc5c(N)ncnc54)[C@H](O)[C@@H]3O)c2cc1C", "note": "[FAD]", "values": [{"measurement": "UV-vis absorption and blue-light photoreduction of co-purified cofactor", "setting": "PhrB", "value": "the FAD cofactor in PhrB is photoreduced to the fully reduced FAD state"}, {"measurement": "UV-vis absorption and blue-light photoreduction of co-purified cofactor", "setting": "PhrA", "value": "a nearly stoichiometric ratio of both cofactors to the PhrA apoprotein was determined"}]}
